In US9586963B2 (GENFIT, priority 2011, dated 2017):

How the values were obtained:
[1] = target: T1, Rev-Erb alpha (Homo sapiens, UniProt P20393); assay: M2H (mammalian two-hybrid) cellular activation assay of Rev-Erb alpha; assay type: cell-based; conditions: M2H assay, HEK293 cells, Gal4-Rev-Erb alpha / VP16-NCoR, luciferase reporter
T1 sequence (P20393 284-614 limits assumed): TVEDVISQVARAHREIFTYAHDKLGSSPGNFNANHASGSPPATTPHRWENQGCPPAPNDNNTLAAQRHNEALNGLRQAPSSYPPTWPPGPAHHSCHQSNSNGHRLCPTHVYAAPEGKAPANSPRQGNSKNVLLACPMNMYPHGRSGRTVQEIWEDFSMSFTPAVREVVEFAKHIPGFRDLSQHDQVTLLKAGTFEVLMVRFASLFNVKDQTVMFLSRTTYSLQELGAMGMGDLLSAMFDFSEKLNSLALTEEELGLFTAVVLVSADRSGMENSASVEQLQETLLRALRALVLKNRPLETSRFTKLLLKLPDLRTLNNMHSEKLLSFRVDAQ
In short: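 Six-point dose-response, 18 h, 37 °C, serum-free, in HEK293 cells carrying a Gal4-RE luciferase reporter with Gal4-Rev-Erb alpha or beta plus VP16-NCoR (corepressor interaction readout). EC50 and TOP activation (%) derived from luminescence across four experiments.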

[2] = target: T2, Rev-Erb beta (Homo sapiens, UniProt Q14995); assay: M2H (mammalian two-hybrid) cellular activation assay of Rev-Erb beta; assay type: cell-based; conditions: HEK293 cells, Gal4-Rev-Erb beta / VP16-NCoR, luciferase reporter
T2 sequence (Q14995 369-579 limits assumed): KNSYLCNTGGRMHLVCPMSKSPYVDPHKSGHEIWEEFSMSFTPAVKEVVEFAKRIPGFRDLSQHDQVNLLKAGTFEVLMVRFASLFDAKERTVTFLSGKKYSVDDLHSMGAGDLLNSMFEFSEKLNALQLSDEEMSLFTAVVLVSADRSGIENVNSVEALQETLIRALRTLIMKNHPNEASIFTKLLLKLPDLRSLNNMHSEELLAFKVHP
Procedure: In this system, Rev-Erb alpha or Rev-Erb beta is expressed as a fusion to the Gal4 DNA-binding domain and the cofactor NCoR is expressed as a fusion to the activation domain of the Herpes Simplex Virus tegument protein VP16. These fusion proteins were included in plasmids at a concentration of 1 μg/μL. The pBS-SK+ vector was added to the preparation to adjust the DNA quantity to a fixed value for each condition.
The transfection mix (Jet-PEI protocol, Polyplus transfection) comprised: • 3 mL of Jet PEI Mix (180 μL Jet-Pei and NaCl at 150 mM) and • 3 mL of the DNA Mix or of the DNA Mix control (wherein the Gal4-Rev-Erb alpha plasmid was replaced by a pGal4phi plasmid).
DNA Mix comprised 1.2 mL of DNA and 1.8 mL of NaCl at 150 mM with, in a T225 flask: • 90 ng of Gal4-Rev-Erb alpha, or 90 ng of Gal4-Rev-Erb beta, • 4500 ng of VP16-NCoR, • 27000 ng of Gal4-RE and • 13410 ng of pBS-SK+. Cells
HEK293 cells were cultured in DMEM (Invitrogen 41965) comprising 10% FBS, P/S, 1% glutamine, 1% pyruvate (Invitrogen 11360) and 1% amino acids (Invitrogen 11140). Cells were then batch co-transfected with plasmid vectors (described in the table above) using as Jet-PEI as reagent (Polyplus) following the protocol specified below.
The 6 mL-transfection mix was transferred in a T225 flask. HEK293 cells were then added at a concentration of 12 Millions of cells for 54 mL of medium (DMEM comprising 10% FBS and 1% P/S). Cells incubated over-night at 37° C. and under 5% CO2.
This cell-based assay is performed using 384-well Greiner white plates (Reference 781080). After the incubation, cells were rinsed with PBS, trypsinized, centrifuged and resuspended in free-serum DMEM without phenol red (Invitrogen 31053). Cells were counted and adjusted to 0.5 Million per mL and plated at a concentration of 10,000 cells in 20 μL per well. They were incubated a minimum of 4 hours at 37° C. under 5% CO2. Cells were treated with 20 μL of the compound to analyze (concentration of 2× diluted in DMEM without FBS containing a maximum of 1% DMSO) and incubated over-night (18 hours, 37° C. and 5% CO2). Each compound has been tested at 6 different concentrations to depict a dose-effect allowing the measure of biochemical parameters such as EC50 and TOP activation (%).
Cells were incubated 30 minutes with 40 μL/well of Steady Glow (Promega) and luminescence was read with TECAN Genios Pro (100 ms/w). Four experiments were carried out for each compound.
Each compound has been tested at 6 different concentrations to depict a dose-effect allowing the measure of biochemical parameters such as EC50 and TOP activation (%).
The mammalian two-hybrid system (M2H) assay consists herein in studying the ability of compounds according to the invention to activate Rev-Erbalpha in cells and thus modulate the interaction with its corepressor. The interaction of the two proteins is assessed with the help of the Luciferase reporter gene. HEK293 cells were transfected with two gene constructions: Gal4-RE VP16-NCoR and Gal4-Rev-Erbalpha or with Gal4-RE, sVP16-NCoR and Gal4-Rev-Erb beta.
The ability of compounds according to the invention of activating Rev-Erbalpha alpha or Rev-Erb beta was assessed in the described cell-based assay. EC50 and TOP activation (%) were measured.

[3] = test system: Diet Induced Obesity mice; assay: In vivo evaluation in Diet Induced Obesity mice (high fat diet): glycemia, Hb1Ac; parameters: species or system C57BI/6J mice; conditions: diet induce obese mice, 45 mpk, once daily by gavage, 28 days
Procedure: Four week-old male C57BI/6J mice (from Janvier, France) were fed with an high fat diet (D12492, SSNIFF) for up to 10 weeks. All mice were housed 2 per cage under controlled conditions of humidity, lighting and temperature. At the end of the 10 week of diets, mice were randomized according to their body weight gain, body weight, and their non-fasting glycaemia. The treatments with compound of interest were administered once daily, by gavage (10 mL/kg) for 28 consecutive days. For oral administrations, the drugs were suspended in CMC 1%+Tween 80 0.1%.
As previously described animals were assayed for their non fasting glycaemia and biochemical parameters such as Hb1Ac.
At the end of the treatment period, animals were anesthetized with isoflurane and then sacrificed by cervical dislocation. The Student's t-test was used to test for statistical differences between drug and vehicle treatments when a single dose of drug was used.

[4] = target: T3, Rev-Erb alpha (Homo sapiens, UniProt P20393); conditions: FRET assay; Meng Q J et al., 2008; cited from earlier work
T3 sequence (P20393 1-614): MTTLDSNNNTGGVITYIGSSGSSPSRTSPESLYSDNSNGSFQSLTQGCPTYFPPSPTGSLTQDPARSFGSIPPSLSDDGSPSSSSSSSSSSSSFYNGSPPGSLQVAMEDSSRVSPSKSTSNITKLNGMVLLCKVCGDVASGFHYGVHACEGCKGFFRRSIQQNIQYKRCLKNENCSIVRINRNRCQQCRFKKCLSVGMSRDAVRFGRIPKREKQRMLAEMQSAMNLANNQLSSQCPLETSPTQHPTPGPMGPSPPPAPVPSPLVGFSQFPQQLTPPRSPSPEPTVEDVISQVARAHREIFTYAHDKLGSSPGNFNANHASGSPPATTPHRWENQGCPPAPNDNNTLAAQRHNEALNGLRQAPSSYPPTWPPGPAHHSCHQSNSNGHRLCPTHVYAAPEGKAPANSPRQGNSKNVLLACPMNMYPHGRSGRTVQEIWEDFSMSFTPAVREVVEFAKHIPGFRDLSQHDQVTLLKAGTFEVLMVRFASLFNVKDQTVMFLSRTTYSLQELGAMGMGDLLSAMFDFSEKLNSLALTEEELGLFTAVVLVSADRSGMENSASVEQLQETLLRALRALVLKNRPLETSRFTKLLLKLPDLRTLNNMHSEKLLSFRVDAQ

[5] = test system: Bmal1; conditions: cell culture, dose-dependent; cited from earlier work
[6] = test system: 3T3-L1 cells; conditions: lipid accumulation and adipogenic genes; cited from earlier work
[7] = high clearance and rapid metabolism; cited from earlier work
[8] = test system: diet induced obese mice; conditions: Solt et al; cited from earlier work

Row | EC50 [1] [nM] | EC50 [2] [nM] | melting point [°C] | Structure (SMILES) | also measured
1 | 100 to 1000 | 100 to 1000 | 199.1 | CC(C)(C)c1ccc(Oc2ccc3nnc(Cl)n3n2)c(-c2ccccc2)c1 [Cpd.4-19, 6-(5-tert-butyl-biphenyl-2-yloxy)-3-chloro-[1,2,4]triazolo[4,3-b]pyridazine] | –
2 | < 100 | 100 to 1000 | 148 to 149 | CN(C)c1ccc(Oc2ccc3nnc(Cl)n3n2)c(-c2ccccc2)c1 [Cpd.4-46, 3-chloro-6-(5-dimethylamino-biphenyl-2-yloxy)-[1,2,4]triazolo[4,3-b]pyridazine] | –
3 | 100 to 1000 | 100 to 1000 | 72 to 77 | CCNc1ccc(Oc2ccc3nnc(Cl)n3n2)c(-c2ccccc2)c1 [Cpd.4-54, 3-chloro-6-(5-ethylamino-biphenyl-2-yloxy)-[1,2,4]triazolo[4,3-b]pyridazine] | –
4 | 100 to 1000 | 100 to 1000 | 85 to 88 | CCCCNc1ccc(Oc2ccc3nnc(Cl)n3n2)c(-c2ccccc2)c1 [Cpd.4-58, 3-chloro-6-(5-butylamino-biphenyl-2-yloxy)-[1,2,4]triazolo[4,3-b]pyridazine] | –
5 | 1000 to 6000 | – | – | FC(F)(F)c1ccc(-c2cncnc2)c(Oc2ccc3nnc(Cl)n3n2)c1 [Cpd.4-99, 3-chloro-6-(2-(pyrimidin-5-yl)-5-(trifluoromethyl)phenoxy)-[1,2,4]triazolo[4,3-b]pyridazine] | Hb1Ac levels [3]: significantly reduced; non fasting blood glucose concentration [3]: significantly reduce
6 | – | – | – | CC(C)(C)OC(=O)CN(Cc1ccc(Cl)cc1)Cc1ccc([N+](=O)[O-])s1 [GSK4112] | interaction of NCoR-derived peptide with Rev-Erb alpha [4]: dose-dependently increasing the interaction; Bmal1 expression [5]: decreases Bmal1 expression; adipogenesis [6]: induces adipogenesis; pharmacokinetic properties [7]: poor pharmacokinetic properties
7 | – | – | – | CCOC(=O)C1Cc2ccccc2CN1C(=O)c1ccc(SC)s1 (stereo not shown) [SR8278] | pharmacokinetic properties [7]: poor pharmacokinetic properties
8 | – | – | – | CCOC(=O)N1CCC(CN(Cc2ccc(Cl)cc2)Cc2ccc([N+](=O)[O-])s2)C1 (stereo not shown) [SR9009] | metabolic parameters [8]: improve the metabolic parameters
9 | – | – | – | CCCCCNC(=O)N1CCC(CN(Cc2ccc(Cl)cc2)Cc2ccc([N+](=O)[O-])s2)C1 (stereo not shown) [SR9011] | metabolic parameters [8]: improve the metabolic parameters
